# Assay results as given in a melting point compilation (Tetko et al.; mined from patent text by program, amines drawn as free bases though some values may be those of a salt).
row,melting point [°C],Structure (SMILES)
1,186 to 188,Cc1cc(S(=O)(=O)N2c3ccccc3-c3ccccc3C2C)ccc1O (stereo not drawn)
2,185 to 187,COC(=O)c1[nH]c(-c2ccccc2)c(-c2ccccc2)c1C(=O)OC
3,186,CC(C)(C)c1ccc(C(=O)N[C@H]2CC[C@H](CCN3CCN(c4nccc5c4CCO5)CC3)CC2)cc1
4,193,Cc1cc(C(F)(F)F)nn1CC(=O)N1CCC(c2nc(NC(=O)Nc3ccccc3)cs2)CC1
5,156 to 158,CCC(OC(=O)COC)c1ccc(Cl)c2nc3n(c12)CCCN3c1ccc(Cl)cc1Cl (stereo not drawn)
6,208 to 209,CC(C)(C(=O)NCCC#N)c1ccc(C(=O)Nc2cn3cc(Cl)ccc3n2)cc1
7,75.5 to 78.5,CC(C)C(CNC(=O)OCc1ccccc1)C(=O)O (stereo not drawn)
8,132 to 134,COc1ccc(C(=O)C2CCN(C(C)=O)CC2)c(OC)c1
9,78 to 79,CCCCCCCCCCCCn1c2cc(Br)ccc2c2ccc(Br)cc21
10,137 to 139,C#CCN(Cc1ccc2nc[nH]c(=O)c2c1)c1ccc(C(=O)NCc2cccnc2)cc1
11,244 to 247,Cc1ncsc1NC(=O)Nc1ccc(-n2nc(C3CC3)cc2C(F)(F)F)nc1
12,239 to 241,CCOC(=O)COc1ccc(SCc2ccnc3[nH]c(-c4ccc(C(F)(F)F)cc4)nc23)cc1C
13,121 to 124,COc1ccc(C)cc1NC(=O)Nc1ccc(N2CCN(C(=O)Nc3cc(OCCO)ccc3C)CC2)cc1
14,155 to 157,O=c1[nH]c2ccccc2n1C1CCN(CC(O)CSc2ccc(F)cc2)CC1 (stereo not drawn)
15,64 to 67,CC(C)(C=C=CC(=O)O)c1ccc(Cl)cc1
16,88 to 90,COC=C(C(=O)OC)c1ccccc1CBr
17,207 to 209,Cc1ccc(-c2ccc(C(=O)Nc3ccc4nc(CN5CCCC5)ccc4c3)cn2)cc1
18,170,CC(=O)N(C)CCCC(=O)OC1c2ccccc2C(=O)N1c1ccc2ccc(Cl)nc2n1 (stereo not drawn)
19,265 to 267,CC1(C)CCn2c(nc(-c3ccncn3)cc2=O)N1
20,190 to 192,O=C1C=C(O)C(=O)c2cc(-c3ccccc3)ccc21
21,181,Cc1cccc(NC(=O)NCC(=O)N(c2ccccc2)C(C(=O)OC(C)(C)C)c2ccccc2Cl)c1 (racemic)
22,206 to 208,Cc1nn(-c2cc(C(F)(F)F)ccc2Cl)cc1C(=O)O
23,59 to 60,O=C1C(=O)c2ccccc2C2=C1SCC1(CCCN(CC(O)Cc3ccccc3)C1)O2 (stereo not drawn)
24,172,O=C(O)Cc1cccc2c(C3CCCC3)nccc12
25,238 to 240,O=C(CC1Sc2ccccc2NC1=O)NCc1ccccc1 (stereo not drawn)
26,236 to 237,O=C(Nc1c[nH]nc1C(=O)Nc1cccc(C(F)(F)F)c1)c1ccccn1
27,183 to 185,CC(=O)N1CCN(c2ccc(F)cc2O)CC1

row,melting point [°C],Structure (SMILES)
1,134 to 139,CSC1C(=O)Nc2c(Oc3cccc4ccccc34)cccc21 (stereo not drawn)
2,193 to 194,Cc1nccn1-c1ccc(NC(=O)CCc2cnoc2-c2ccc(Cl)cc2)cn1
3,148,C=C(CC)C(=O)c1cc2c(c(Cl)c1Cl)OC(C(=O)O)C2 (stereo not drawn)
4,169 to 170,COc1ccc(-c2oncc2CCC(=O)O)cc1OC
5,136 to 138,O=C(CSCCOc1ccccc1)NNC(=O)c1ccc(Cl)nc1
6,86,COc1cc(F)ccc1-c1ccc(S(=O)(=O)N2c3ccccc3CC2C(=O)NCCOc2ccc(C(=O)OC(C)(C)C)cc2)cc1 (stereo not drawn)
7,154 to 156,COC(=O)c1nc(-c2ccc(C)c(C)c2)cc(N)c1Cl
8,192,CN(c1cccc2cc(-c3nccs3)[nH]c12)S(=O)(=O)c1ccsc1CO
9,58,C=CCCCCCCCCOC(=O)C=Cc1ccccc1O
10,97 to 100,CCSc1ccc(N)c(C(=O)O)c1
11,157 to 162,Cn1c(COc2ccc(CC3SC(=O)NC3=O)cc2)nc2ccc(OCCc3ccc(NC(=O)Nc4ccc(Cl)cc4)cc3)cc21 (stereo not drawn)
12,67 to 70,CCCCc1oc2ccccc2c1Cc1ccc(O)cc1
13,264 to 266,Cc1cc(-n2ncnn2)cc2ccc(=O)[nH]c12
14,120,COc1ccc(N2CCN(CCn3c(=NC(=O)C(F)(F)F)sc4cc(C(F)(F)F)ccc43)CC2)cc1
15,226 to 228,CCN1C(=O)C(C)(C)CCc2c1ccc(Nc1ncc(Cl)c(Nc3ccccc3C(=O)NC)n1)c2OC
16,69 to 71,CCOC(=O)C(C)Oc1ncn(-c2ccc(Cl)c(Cl)c2)n1 (stereo not drawn)
17,106 to 107,Cc1cc(C)nc(S(=O)(=O)c2ccccc2)c1
18,189 to 191,CC(C)n1cnc2c(NCc3ccc(O)cc3O)nc(NC[C@@H](C)O)nc21
19,> 300,CCCn1c(=O)c2[nH]c(-c3cc(C)n(CC(=O)Nc4ccc(N(C)C)cc4)n3)nc2n(CCC)c1=O
20,> 260,CCCCC1=C(C(=O)O)Nc2ccc(C(=O)O)cc2C1O (stereo not drawn)
21,162 to 164,O=C(O)CCC(=O)c1cccc([N+](=O)[O-])c1
22,102 to 103,CC(C)C(=O)NCCOc1ccc([N+](=O)[O-])cc1
23,149 to 150,CC(=O)C(CCCc1ccccc1)n1cnc2c(=O)[nH]c(Cc3ccc(OC(F)F)c(N)c3)nc21 (stereo not drawn)
24,180 to 183,O=C(CNc1ccc2[nH]c(=O)oc2c1)N1CCC(Oc2ccc(Cl)cc2)CC1
25,124 to 125,Cc1oc(-c2ccccc2)nc1CCC(=O)O
26,187 to 189,CCCc1[nH]nc2c1C(=O)c1c(NC(N)=O)cccc1-2
27,129 to 130,O=C(OCC(Cl)(Cl)Cl)c1ccc2c(c1)C(C(Cl)(Cl)Cl)OC(C(Cl)(Cl)Cl)O2 (stereo not drawn)

# More lines, now with the values behind:
row,Structure (SMILES),melting point [°C]
1,COc1ccc2nc(CO)n(C)c2n1,138 to 140
2,CC(C)(C)c1cc(Sc2n[nH]c(=S)s2)cc(C(C)(C)C)c1O,181 to 186
3,OCc1nn(-c2ccc(Br)cc2)c2c1CCCC2,126 to 127
4,N#Cc1cccc(CSc2nnc(-c3ccc4nccn4c3)o2)c1,175 to 176
5,O=C(N[C@@H]1CN[C@H]2CCO[C@H]21)C(F)(F)F (relative stereo),106 to 110
6,N#CC(c1ccc(Cl)cc1)c1c(Cl)cc(NN=Cc2ccccc2)cc1Cl (stereo not drawn),162 to 163
7,O=CCC1Cc2cc(F)c(F)cc2C1=O (racemic),78 to 81
8,Cc1[nH]c(=O)n(C)c1-c1cc(C(C)(C)C)c(O)c(C(C)(C)C)c1,285 to 286
9,O=C1c2cc3nnn(CCC4CCCCC4)c(=O)c3cc2OC2CCCN12 (stereo not drawn),170
10,O=C(Nc1ccc(C(F)(F)F)cc1)N1N=C2c3ccc(C(F)(F)F)cc3OC3CCCC1C23 (stereo not drawn),194 to 195
11,CCN1CCN(CCCOc2cc3ncc(C#N)c(Nc4ccc(Sc5nccn5C)c(Cl)c4)c3cc2OCCOC)CC1,188 to 190
12,COc1cccc(NC(C)=O)c1C(=O)NC1CCN(C(C)CC(C(=O)N(C)C)(c2ccccc2)c2ccccc2)CC1O (stereo not drawn),146
13,CC(C)(C)OC(=O)N1CCCC2(CCN(c3ccc4nc(-c5ccc(F)cc5)c(-c5ccnc6[nH]ccc56)n4n3)CC2)C1,192 to 193
14,N#CCCNC(=O)c1ccnc(-c2cccc3nn(Cc4cccc(C(F)(F)F)c4)cc23)c1,147 to 148
15,CC(C)C[C@H](N)[C@@H](O)CCSCCc1ccccc1,95 to 96
16,CN1CC=C(c2ccnc(C(=O)N(O)Cc3ccccc3)c2)CC1,135 to 155
17,CC(C)(C)C(=O)C(=CC1CCCCC1)n1cncn1,98
18,CC(C)(C)OC(=O)N1CCN(C(=O)CCl)CC1,68 to 70
19,N#Cc1cccc(-c2ccccn2)n1,136 to 137
20,CS(=O)(=O)c1ccc(-n2nc(C(F)(F)F)cc2-c2ccc(-c3cscn3)c(F)c2)cc1,176 to 178
21,Cc1nc(C)c(Cl)c(NCc2nccc(OCCOCCSCCn3c([N+](=O)[O-])cnc3C)c2C)n1,102 to 105
22,CN1CCCCCC1=NC(=O)Nc1c(Cl)cccc1Cl,143 to 144

row,Structure (SMILES),melting point [°C]
1,COC12CC(C)(C)C(O)C(C=C1C)O2 (stereo not drawn),82.5 to 83.5
2,O=[N+]([O-])c1ccc(Oc2cncc(Cl)n2)cc1,125 to 127
3,Cc1ccc(S(=O)(=O)NC(=O)c2cc(Oc3ccc(C(F)(F)F)cc3Cl)ccc2[N+](=O)[O-])cc1,150
4,c1cc(N2CCCCC2)ccc1OC12CC3CC(CC(C3)C1)C2,72 to 73.5
5,C=CCN(CC=C)c1nc(NC2CC(C)(C)NC(C)(C)C2)nc(NC(C)(C)CC(C)(C)C)n1,180
6,O=C1C=CC2=CN=C(c3ccco3)N3CCC(=C23)N1,278 to 279
7,"CC(Sc1cnn(C(C)(C)C)c(=O)c1Cl)c1ccc(C(C)(C)C)cc1 (single isomer, unassigned; (+))",102 to 104
8,Oc1c(CN2CCCC2)cc(Nc2ccccn2)cc1CN1CCCC1,158 to 159
9,Nc1cn2cc(Sc3ccccc3)ccc2n1,110 to 112
10,Oc1nc2c(Cl)nc3ccccc3c2n1CC1CCOCC1,> 275
11,N#Cc1cnc2cc(O)ccc2c1Nc1ccc(Cl)cc1F,295 to 305
12,Cc1cc(Cl)c2c(n1)C(O)CCC2 (stereo not drawn),87 to 90
13,COc1nc(N2C(=O)C3CCCCN3C2=O)c(F)cc1C#N (stereo not drawn),159 to 170
14,C(=C1CCN(C(c2ccccc2)(c2ccccc2)c2ccccc2)CC1)c1ccc(C2=NCCO2)cc1,74
15,COc1ccc(-n2nc3c(cc2=O)CCSc2sc(Br)cc2-3)cc1,148 to 150
16,Cn1ccnc1C(O)(c1ccc(Cl)cc1)c1ccc(Cl)cc1,190 to 191
17,Cc1nc2cc(Oc3cc(-c4ccc(C(F)(F)F)cc4)ccn3)ccc2s1,160 to 164
18,Cc1c(SCc2ccco2)ccnc1CSc1nc2ccccc2n1CCN(C)C,87 to 89
19,CC1(C)CCC(C)(C)c2cc(-c3cc(-c4ccc(C=O)cc4)ccc3-c3ccccc3)ccc21,120 to 122
20,OCc1ncc2n1CCC2,110 to 120
21,COc1c(C)cc(N2CCN(S(=O)(=O)c3ccc(C)cc3)CC2)cc1C,174
22,CC(=O)OC1CSC(Oc2cc(F)cnc2Cl)C(OC(C)=O)C1OC(C)=O (stereo not drawn),185
